Assay results published in patent US12172960B2, “Organic compound salts” (priority 2022, dated 2024).
In brackets after ≈: the same amount, converted by molar mass. Several values for one entry are separate records, joined by “and”; a condition that tells them apart may be missing. Equal entries are not always repeated.

Legend:
Format in all cases: physicochemical
[1] = Dynamic vapor sorption (DVS) analysis; settings: for further increase between 60% RH and 90% RH / water gain up to 60% RH / total water absorption over the humidity range: first sorption cycle, hydrobromide; for further increase between 60% RH and 90% RH: 60% RH to 90% RH; for total water absorption over the humidity range: up to 90% RH
Description: Dynamic vapor sorption (DVS) data was collected for both 5-MeO DMT HBr Pattern A and Pattern B. The DSV data are shown in FIG. 10 (Pattern A) und FIG. 11 (Pattern B). DVS profiles are almost identical.

[2] = Flow properties (bulk density, tapped density); settings: for Hausner Factor: Tapped density/Bulk density; for Carr's Index: calculated from tapped and bulk density
Procedure: The bulk density and the tapped density of an HBr salt sample as obtained according to the above method was determined applying standard methods. • Bulk density: 0.19 g/cm^3 • Tapped density: 0.25 g/cm^3 • From this, the Carr's Index characterizing flow properties can be calculated ([…]). The index is 24%.

[3] = Solubility and pH in water for injection (24 hours equilibration, 25° C.); settings: for pH value of the suspension/solution after 24 hours: in water for injection, determined at 25° C.; for solubility at 24 h: water for injection, 24 hours of equilibration, 25° C.
Procedure: 5-MeO-DMT freebase and 5-MeO-DMT hydrobromide (30 mg) were weighed out into crystallisation tubes, water for injection (WFI; 150 μL, 5 vols) was charged and samples were left to equilibrate (25° C.) over 24 hours.
The free base led to a suspension. An additional 850 μl of water was added. The mixture was still a suspension. […] The pH value of the suspension after 24 hours was 9.93, determined at 25° C.
In the case of 5-MeO-DMT HBr, a solution was obtained. […] The pH value of the solution after 24 hours was 6.84, determined at 25° C.

[4] = Particle size distribution by laser light scattering; settings: sample weight 800 mg; listed as HBr salt, hydrobromide
Procedure: The particle size distribution of a sample obtained as in the above example was determined using a laser light scattering method.

SMILES	modification of form following equilibration at extremes of relative humidity [1]	further increase between 60% RH and 90% RH [1] [wt %]	water gain up to 60% RH [1] [%]	total water absorption over the humidity range [1] [wt %]	Bulk density [2] [g/mL]	Tapped density [2] [g/mL]	Hausner Factor [2]	Carr's Index [2] [%]	pH value of the suspension/solution after 24 hours [3]	solubility at 24 h ([3]; pH 6.84, thermodynamic from solid) [µg/mL]	Dv10 [4]	Dv90 [4]	solubility at 24 h ([3]; pH 9.93, thermodynamic from solid) [µg/mL]
Br.COc1ccc2[nH]cc(CCN(C)C)c2c1 [5-MeO-DMT HBr Pattern A, 5-methoxy-N,N-dimethyltryptamine hydrobromide]	Neither form showed any modification	1.56	0.13	1.7	–	–	–	–	–	–	–	–	–
Br.COc1ccc2[nH]cc(CCN(C)C)c2c1 [5-MeO-DMT HBr Pattern B, 5-methoxy-N,N-dimethyltryptamine hydrobromide]	Neither form showed any modification	1.57	0.14	1.71	–	–	–	–	–	–	–	–	–
Br.COc1ccc2[nH]cc(CCN(C)C)c2c1 [5-MeO-DMT HBr, 5-methoxy-N,N-dimethyltryptamine hydrobromide]	–	–	–	–	0.19	0.25	1.31	24	6.84	> 200000	57.8 μm and 60.8 μm and 65.1 μm	613 μm and 630 μm and 643 μm	–
COc1ccc2[nH]cc(CCN(C)C)c2c1 [free base, 5-Methoxy-N,N-dimethyltryptamine, reference compound]	–	–	–	–	0.32	0.54	1.68	41	9.93	–	–	–	3290 (≈ 15.1 mM)
